From article PMC4948680 (European journal of pharmaceutical sciences : official …, 2016)

Tests used:
[1] = set-up: species or system mice
Protocol: (§1) Clearance kinetics in each organ was determined by exponential curve fitting. The time-integrated activity concentration (TIAC) was obtained by integration of this exponential curve folded with the decay curve of ^111In and ^177Lu.Mouse dosimetry was calculated for both ^177Lu and ^111In using the TIAC and the 25 g RADAR mouse absorbed dose rates per unit activity S for each source and target organ combination ([Keenan et al., 2010]; [Konijnenberg et al., 2014]).

[2] = set-up: species or system humans
Protocol: as §1
Extrapolation of biodistribution uptake data in mice to humans was based on two options for interspecies scaling ([Stabin, 2008]). 1. (%IA/organ)human=[(%IA/g)mouse×Mmouse(kg)]×(m(g)/M(kg))human with m the organ mass and M the total body weight of mouse or human and with %IA/gand%IA/organ the percentage of the injected activity concentration and per organ, respectively. The mouse organ TIACs are multiplied with the ratio of mouse and human body weights Mmouse/Mhuman to obtain the extrapolated human TIAC, and this multiplied with the organ mass (from the MIRD standard man phantom) yields the residence time in each source organ. 2. (%IA/organ)human=(%IA/organ)mouse=(%IA/g)mouse×mmouse in this method the uptake per organ is extrapolated one-to-one from mouse to man. The extrapolated human residence time is obtained by multiplying the mouse TIAC or each source organ with its mouse organ mass. […]

Structure (SMILES): CSCC[C@H](NC(=O)[C@H](Cc1c[nH]c2ccccc12)NC(=O)CNC(=O)[C@H](Cc1ccc(O)cc1)NC(=O)[C@H](C)NC(=O)[C@@H](CCC(=O)O)NC(=O)[C@@H](CCC(=O)O)NC(=O)[C@@H](CCC(=O)O)NC(=O)[C@@H](CCC(=O)O)NC(=O)[C@@H](CCC(=O)O)NC(=O)[C@@H](CCC(=O)O)NC(=O)CN1CCN(CC(=O)O)CCN(CC(=O)O)CCN(CC(=O)O)CC1)C(=O)N[C@@H](CC(=O)O)C(=O)N[C@@H](Cc1ccccc1)C(N)=O [^111In-CP04, ^111In-DOTA-(DGlu)6-Ala-Tyr-Gly-Trp-Met-Asp-Phe-NH2, metal not drawn]
- Absorbed dose per injected activity, Bone [1]: 9 mGy/MBq
- Absorbed dose per injected activity, Kidneys [1]: 56 mGy/MBq
- Absorbed dose per injected activity, Large intestine [1]: 7 mGy/MBq
- Absorbed dose per injected activity, Liver [1]: 3 mGy/MBq
- Absorbed dose per injected activity, Lungs [1]: 3 mGy/MBq
- Absorbed dose per injected activity, Pancreas [1]: 5 mGy/MBq
- Absorbed dose per injected activity, Small intestine [1]: 7 mGy/MBq
- Absorbed dose per injected activity, Spleen [1]: 3 mGy/MBq
- Absorbed dose per injected activity, Stomach wall [1]: 15 mGy/MBq
- Absorbed dose per injected activity, Total body [1]: 4 mGy/MBq
- calculated absorbed dose for kidneys [2]: 27.5 mGy/220 MBq
- expected whole body radiation dose (effective dose) [2]: 9.9 mSv
